Results published in PMC5450539, “Anti-Inflammatory Activity and Structure-Activity Relationships of Brominated Indoles from a Marine Mollusc” (Marine Drugs, 2017).
Values joined by “and” are separate entries in the source; they are usually repeats but may differ in a detail not shown here. Equal entries are not always repeated. Where two headings read alike, the source gives them in different places.

How the values were obtained:
[1] = test system: 3T3 ccl-92 mouse fibroblast; test: Crystal violet cytotoxicity assay, 3T3 ccl-92; format: cell-based; conditions: 24 h incubation; max test concentration 50 µg/mL; > = <50% reduction in viability at max
Description: All extract/compounds were dissolved in DMSO and tested at 5 different concentrations of 50, 10, 2, 0.4, and 0.08 μg/mL for all anti-inflammatory assays unless otherwise noted. The final concentration of DMSO was 0.35% v/v for extracts and compounds. All samples were tested in triplicate at each concentration and each assay was independently repeated at least 3 times. The concentrations used for the cytotoxicity assays were 50, 25, 12.5, 6.25. and 3.125 μg/mL.
To check for cytotoxicity of the extracts and compounds against RAW264.7 mouse macrophage and 3T3 ccl-92 mouse fibroblast cell lines, the crystal violet cytotoxicity test was used according to the published protocol. In brief, RAW264.7 cells were seeded with a density of 2 × 10^4 cells/well in a 96-well plate and then incubated for 18–24 h. The following day the compounds/extracts were added and then incubated for 24 h before the media was aspirated and the cells washed twice in a gentle stream of water. After removing the water, 50 µL of 0.5% crystal violet staining solution were added and the cells were incubated for 20 min at room temperature. The plate was then washed 4 times with water and air dried for 2 h. Finally, 200 μL of methanol was added to each well and incubated for 20 min at room temperature on a rocker. This was followed by measuring the optical density at 570 nm with a plate reader Anthos Zenyth 200rt (Anthos Labtec Instruments, Heerhugowaard, The Netherlands). Chlorambucil was used as a positive control.

TNFα production = test: TNF-alpha inhibition assay (ELISA) in LPS-stimulated RAW264.7 macrophages; format: cell-based, mouse; conditions: for IC50: Mus musculus
Description: The amount of TNFα was quantified in cell culture media using murine TNFα ELISA kits (BD bioscience). In brief, the RAW264.7 mouse macrophages (6 × 10^5 cells/mL) were stimulated with LPS (100 ng/mL) 1 h after treatment with several concentrations of extracts (0.08–50 μg/mL). After 18 h, the supernatant was collected and TNFα production was measured by reading the absorbance at 450 nm wavelength on an Anthos Zenyth 200rt microplate reader (Anthos Labtech Instruments). Dexamethasone at a concentration of 2.5 μM was used as a positive control, with a negative control of 0.35% DMSO.
All data were processed in Microsoft Office Excel 2013 (MS) first to obtain descriptive statistics. One-way Analysis of Variance (ANOVA) followed by Dunnett’s multiple comparisons test was performed using GraphPad Prism version 6.00 for Windows (GraphPad Software, La Jolla, CA, USA, www.graphpad.com), with p < 0.05 considered significant. The inhibitory concentration responsible for a 50% reduction in cell viability or production of inflammatory markers (IC50) was calculated using the regression analysis, Probit in SPSS v21.

[2] = test system: nitric oxide (NO) production; test: NO inhibition assay (Greiss) in LPS-stimulated RAW264.7 macrophages; format: cell-based, mouse; conditions: for IC50: Mus musculus
Description: RAW264.7 macrophages were incubated 1 h with extracts/compounds prior to the addition of LPS. […] Then, 20 h after the addition of LPS, the supernatant was collected. […] The plates were incubated for 15–20 min in the dark, then read at 550 nm wavelength on an Anthos Zenyth 200rt (Anthos Labtec Instruments). Sodium nitrite was used to prepare a standard curve to quantify the nitrite from the absorbance readings in this assay. All data were processed in Microsoft Office Excel 2013 (MS) first to obtain descriptive statistics. One-way Analysis of Variance (ANOVA) followed by Dunnett’s multiple comparisons test was performed using GraphPad Prism version 6.00 for Windows (GraphPad Software, La Jolla, CA, USA, www.graphpad.com), with p < 0.05 considered significant.

NO production = test system: NO production; parameters: method as in Matheus et al. [37]; conditions: LPS and interferon-γ induced, RAW264.7; ref Matheus et al. [37]; cited from earlier work
NFκB translocation = test: Assessment of NFκB translocation in LPS-stimulated RAW264.7; format: cell-based; conditions: Mus musculus, RAW264.7, 40 µg/mL, LPS-stimulated RAW264.7, relative to DMSO + LPS
Description: This assay was performed according to the published protocol in Olivera et al.. RAW264.7 mouse macrophages were seeded at 400,000 cells/well in 800 μL in 4-well chambered slides and incubated overnight. The cells were then incubated with the test samples (40 μg/mL HBG extract, 6-bromoisatin, or 6-bromoindole) for 1 h prior to stimulation with LPS (700 ng/mL) for 30 min. After stimulation, the cells were washed with PBS and fixed with 3.7% paraformaldehyde for 15 min. […] The cells were washed with PBS and incubated with rabbit anti-p65 NFκB antibody (1:500) and goat anti-mouse IκB (1:500) overnight at 4 °C. The following day, the cells were washed again three times with PBS and incubated for 1 h with goat-anti-rabbit IgG conjugated with Alexa Fluor 594 (1:1000) and donkey anti-mouse IgG conjugated with Alexa fluor 488 (1:1000) at room temperature. Finally, the cells were washed with PBS then mounted with Prolong mounting media containing DAPI before visualising using the Olympus Flouview FVi10 confocal microscope (Olympus, Tokyo, Japan). Using ImageJ (v1.50i, National Institutes of Health, Bethesda, MD, USA), an outline was drawn around each nucleus by adjusting the colour threshold of DAPI. Mean fluorescence inside the nucleus was measured, along with several adjacent background readings. The total corrected cellular fluorescence (TCCF) was calculated by applying the equation TCCF = integrated density − (area of selected cell × mean fluorescence of background readings). This TCCF was then used to calculate the %inhibition of the NFκB translocation against the positive control where the cells were treated with LPS in the presence of the Vehicle (0.35% DMSO v/v) in Microsoft Office Excel 2013 (Redmond, WA, USA).

TNFα = test system: TNFα; parameters: method as in Matheus et al. [37]; conditions: minimum effective dose not established; ref Matheus et al. [37]; cited from earlier work

With `O=C1Nc2ccccc2C1=O` [isatin] the “Cytotoxicity 3T3 ccl-92 (test concentration which causes toxicity)” value [1] was “NA (not active at maximum test concentration 50 µg/mL)”, the “lowest concentration with significant inhibition of TNFα” value (TNFα production) was 0.5 µM and the IC50 (TNFα production; RAW264.7, LPS-stimulated RAW264.7, max test concentration 50 µg/mL, read-out: TNFα IC50) was over 340 µM. The IC50 (TNFα production; RAW264.7, LPS-stimulated RAW264.7, read-out: TNFα IC50) was over 50 µg/mL, the IC50 (TNFα production; RAW264.7, predicted, above the maximum test concentration, read-out: predicted TNFα IC50) was 717 µM and the “reduction of NO production” value ([2]; 50 µg/mL (maximum test concentration), relative to DMSO control) was 34%. The IC50 ([2]; RAW264.7, LPS-stimulated RAW264.7, max test concentration 50 µg/mL, read-out: NO IC50) was about 340 µM, the IC50 ([2]; RAW264.7, predicted, above maximum test concentration 50 μg/mL, read-out: predicted NO IC50) was 63.3 µg/mL and 430 µM and the “concentrations significantly inhibiting NO production” value (NO production) was 10 to 100 µM. For the same compound, the inhibition at 40 µg/mL (NFκB translocation) was 45.7% and the “concentration at which TNFα was inhibited” value (TNFα) was 100 µM.
